From paper PMC12914960, “Repurposing a detrimental antibody epitope as targeted therapeutics for sepsis and rheumatoid arthritis” (Military Medical Research, 2026)
Where a SMILES comes first, the peptide text is derived from it.

Biological target: T1, Recombinant human HMGB1 (Homo sapiens, UniProt P09429)
T1 construct: made in house; host or cells: E. coli BL21 (DE3) pLysS (given for the rat HMGB1 preparation)
Assay: SPR binding to immobilized HMGB1 (OpenSPR)
Details: 1:1 model
Procedure: Binding kinetics between HMGB1 and P2-1 were measured via Nicoya Life Science gold nanoparticle-based OpenSPR technology (Kitchener, ON, Canada) as previously described. Recombinant human HMGB1 was immobilized onto a carboxyl sensor chip, and the P2-1 peptide was flowed over the immobilized HMGB1 at various concentrations in HEPES-buffered saline with poloxamer (HBS-P buffer, GE Healthcare, Chicago, IL, USA). The response units were recorded over time, and binding affinity was estimated as the equilibrium dissociation constant KD using Trace Drawer Kinetic Data Analysis v.1.6.1 (Nicoya Life Science). Given the 1:1 stoichiometry of the HMGB1-P2-1 interaction predicted by ClusPro protein-protein docking (Additional file 1: Fig. S2), we applied a 1:1 interaction algorithm to determine the association rate constant (ka), dissociation rate constant (kd), and equilibrium dissociation constant (KD) from three independent experiments (n = 3 technical replicates). […]
interaction between high mobility group box 1 (HMGB1) and P2- 1. SPR plots showing the interaction between immobilized HMGB1 and different concentrations of the P2- 1 analyte. Experimental binding responses (blue, purple, and yellow traces) are shown with their corresponding global fits (black curves) via a 1:1 interaction model. The associated table summarizes the globally fitted kinetic parameters, including the maximum b inding capacity (Bmax), association rat e constant (ka), dissociation rat e con stant (kd), and other goodness-of-fit metrics (Chi2). The relatively low Chi2 value indicated a good fit bet ween
(1 picture or pasted object on this page, not shown here)

T1 sequence (P09429 whole entry, looked up): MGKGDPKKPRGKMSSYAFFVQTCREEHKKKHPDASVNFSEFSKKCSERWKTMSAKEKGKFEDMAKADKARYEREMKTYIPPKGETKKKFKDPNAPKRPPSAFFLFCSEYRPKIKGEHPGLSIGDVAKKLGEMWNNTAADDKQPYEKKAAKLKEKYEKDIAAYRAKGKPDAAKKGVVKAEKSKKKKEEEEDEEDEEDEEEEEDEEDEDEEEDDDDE

**Q.** Which KD (Exp 1) does the source give for `CCCC[C@H](NC(=O)[C@H](Cc1c[nH]cn1)NC(=O)[C@@H](NC(=O)[C@H](CCCCN)NC(=O)[C@@H](N)[C@@H](C)O)C(C)C)C(=O)N[C@@H](CCCCN)C(=O)N[C@@H](CO)C(=O)N[C@@H](Cc1ccccc1)C(=O)N[C@@H](CC(C)C)C(=O)N[C@@H](C)C(=O)N[C@@H](Cc1ccccc1)C(=O)N[C@@H](CCC(N)=O)C(=O)N[C@H](C(=O)N[C@@H](CCCCN)C(=O)N[C@H](C(=O)O)[C@@H](C)O)[C@@H](C)O` [P2-1] (HELM PEPTIDE1{T.K.V.H.[Nle].K.S.F.L.A.F.Q.T.K.T}$$$$V2.0; N-terminus and C-terminus assumed) here?
**A.** 14.8 nM

**Q.** What about the KD (Exp 2) of the same compound?
**A.** 33.5 nM

**Q.** What about the KD (Exp 3) of the same compound?
**A.** 2.3 nM
